In data set [1] the test system is xylene-induced ear edema in mice. On the set-up: method as in PMID 31247960, doi:10.2174/157018012800673092. The conditions noted are these: previous study; cited from earlier work.
The subject of data set [2] is IL-1β secretion in RAW264.7 cells induced by LPS. In words: IL-1β content in supernatant of LPS-induced RAW264.7 cells (ELISA). Format: cell-based, mouse. The conditions noted are these: 20 μM, LPS, 24 h, RAW264.7, vs model group. An excerpt:
Interleukin-1β (IL-1β) has strong proinflammatory activity and can induce the production of a variety of proinflammatory mediators, such as cytokines and chemokines. In this work, the ELISA method was used to determine the IL-1β content in the supernatant of RAW264.7 cells stimulated by LPS to evaluate the effects of five compounds on IL-1β secretion.
(§1) RAW264.7 mouse macrophages were purchased from Zhongqiao Xinzhou and cultured in DMEM supplemented with 10% fetal bovine serum (FBS) and 1% penicillin/streptomycin in a 37 °C, 5% CO2 incubator. The cells were passaged every two days to maintain the monolayer cell state.
(§2) The RAW264.7 cells in the logarithmic growth phase were seeded in a 24-well plate and placed in a 37 °C, 5% CO2 constant temperature incubator for culture. After 24 h, the culture medium was discarded. The blank group was added with 10% FBS DMEM 1 mL. The group was added with a medium containing 1 ug/mL LPS, and the experimental group was added with LPS and different concentrations of the target compound to make the final volume 1 mL. After 24 h of culture, the cell supernatant was taken and stored in a refrigerator at −20 °C for later use. The Griess kit was used to determine the concentration of NO in the supernatant, and a double antibody sandwich ELISA kit was used to detect TNF-α and IL-1β.
For orientation: An ELISA detects its analyte on a solid surface through an enzyme-linked reagent.

A short description of data set [3]: Cytotoxicity determination by CCK-8. In kind it is cell-based. The conditions noted are these: mouse, RAW264.7 macrophage cells, RAW264.7 cells. The protocol: as §1
The CCK-8 kit was used to determine the cytotoxicity of the target compounds (1–5) to RAW264.7 cells. The well-growing cells were subcultured in a 96-well plate. After the cells adhered to the wall, the experimental group was added with a medium containing different concentrations of compounds to make the final concentration reach 5, 10, 20, 40, 80, 160 and 320 μmoL/L. The control group was added with a medium without compound, and a blank group without cells or compound was set at the same time. After culturing in a constant temperature incubator for a period, CCK-8 solution was added to produce yellow formazan product. The OD value was measured by the microplate reader at the detection wavelength of 450 nm, and the cell survival rate was calculated. The cell survival rate formula is as follows:(1) Cell Survival Rate %=ODe−ODb/ODc−ODb×100% where ODe was the OD value of the experimental group, ODb was the OD value of the blank group, and ODc was the OD value of the control group.

Data set [4] deals with TNF-α secretion in RAW264.7 cells induced by LPS. Description: TNF-α content in supernatant of LPS-induced RAW264.7 cells (ELISA). Format: cell-based, mouse. The conditions noted are these: 20 μM, LPS 1 ug/mL, 24 h, RAW264.7, vs model group. How it is done: Tumor necrosis factor-α (TNF-α) is a pleiotropic proinflammatory cytokine, known for its proinflammatory activity. To explore the inhibitory effects of five compounds on TNF-α, ELISA was used to determine the content of inflammatory factor TNF-α in the supernatant of RAW264.7 cells stimulated by LPS. RAW264.7 cells secreted a large amount of inflammatory-factor TNF-α 24 h after LPS (1 ug/mL) induction.
as §1, §2

The test system of data set [5] is xylene-induced ear edema in mice. Description: Xylene-induced ear edema in mice. To be noted: for Degree of Edema: 30 μL xylene, 30 min, mean ± SD, n = 6; for Inhibition of ear swelling: xylene-induced ear edema. Format: in vivo, Kunming mice. How it is done: To evaluate the differences in anti-inflammatory effects of the five compounds, the in vivo anti-inflammatory experiment was conducted based on the acute inflammation model of ear swelling induced by xylene. Under the inflammatory effect of 30 μL of xylene, the degree of ear swelling in the blank group and each experimental group was different. […] With an increase in dose the degree of ear swelling decreased, and the effect of ear swelling inhibition was more significant at high dose (100 mg/kg). Under the action of drugs, the five target compounds (1–5) have significant inhibitory effects on ear swelling (Figure 6).
Adult male Kunming mice (18–20 g) were bought from Liaoning Changsheng Biotechnology Co., Ltd. (Shenyang, China, License No. SCXK (Liao) 2015-0001). The breeding is carried out under standard conditions without pathogens (constant room temperature 20–22 °C, 55 ± 5% humidity, 12 h light–dark cycle and free access to food and water). The research protocol has been approved by the Animal Experiment Ethics Committee of the School of Pharmacy of Jilin University (20190048). All experimental operations follow the principles of laboratory animal care, and all animal experiments are conducted in accordance with the Guide for the Care and Use of Laboratory Animals (released by the National Research Council).
In this experiment, Kunming mice were randomly divided into two groups. One group was given 5% sodium carboxymethyl cellulose solution as the blank group, and the other group was given different concentrations of the target compound as the experimental group (high, medium and low doses); continuous intragastric administration was two days and the volume of intragastric administration was 0.2 mL. One hour after the last administration, 30 μL of xylene was evenly smeared on both sides of the mouse’s right ear. After 30 min, the mouse’s right ear was obviously red and swollen and the capillary congestion was severe. Cervical vertebrae were dislocated and sacrificed. The ears on both sides were quickly cut off, an 8 mm ear punch was used to punch holes at the same position on the ears on both sides and they were immediately weighed to calculate the weight difference.
The formula for the difference in ear weight is as follows:(2) D=Wr−Wl where Wr was the weight of the right ear and Wl was the weight of the left ear.
The formula for the inhibition rate of ear swelling is as follows:(3) Inhibition %=Dc−Dt/Dc×100% where Dc was the extent of ear edema of the control group and Dt was the extent of ear edema of the treatment group.

The mark [6] stands for this setting: 25 mg/kg intragastric for two days.
The mark [7] stands for this setting: 50 mg/kg intragastric for two days.
The mark [8] stands for this setting: 100 mg/kg (high dose) intragastric.
Setting [9] is: 100 mg/kg intragastric for two days.

Consider `CN1CC(=O)NC1=O` [MHD, 1-Methylhydantoin], for which, in data set [1], the “effect on ear edema in mice caused by xylene” value is listed as “can reduce ear edema in mice caused by xylene”.
Turning to `CN1CC(=O)N(C(=O)/C=C/c2ccc3c(c2)OCO3)C1=O` [Compound 3, (E)-3-(3-(benzo[d][1,3]dioxol-5-yl)acryloyl)-1-methylimidazolidine-2,4-dione], the melting point (usually the temperature of the solid-liquid transition) fell in the range of 164.8 to 166.1 °C. Besides, the “inhibition of IL-1β secretion” value in data set [2] was “no obvious inhibitory effect on IL-1β”. The CC50 (as a rule, the concentration giving 50% cytotoxicity) in data set [3] amounted to 184 µM. Also, the “inhibition of TNF-α secretion” value in data set [4] was “no obvious inhibitory effect on TNF-α”. Also, the “Degree of Edema” value in data set [5] (setting [6]) is reported as 9.41 ± 1.37 mg. In addition, the “Inhibition of ear swelling” value in data set [5] (25 mg/kg intragastric) amounted to 23.18%. Further, in data set [5] (setting [7]), the “Degree of Edema” value was 9.05 ± 0.84 mg. The “Inhibition of ear swelling” value in data set [5] (50 mg/kg intragastric) came out at 26.12%. The “Inhibition of ear swelling” value in data set [5] (setting [8]) came to 33.06%. In addition, the “Degree of Edema” value in data set [5] (setting [9]) is reported as 8.20 ± 0.27 mg.
Consider `COc1cc(/C=C/C(=O)N2C(=O)CN(C)C2=O)ccc1OC(C)=O` [Compound 5, (E)-2-methoxy-4-(3-(3-methyl-2,5-dioxoimidazolidin-1-yl)-3-oxoprop-1-en-1-yl)phenyl acetate], for which the melting point fell in the range of 148.3 to 149.8 °C. In addition, in data set [2], the “inhibition of IL-1β secretion” value is recorded as “no obvious inhibitory effect on IL-1β”. In addition, the midpoint of cytotoxicity in data set [3], the CC50, lay at 232 µM. The “inhibition of TNF-α secretion” value in data set [4] is listed as “no obvious inhibitory effect on TNF-α”. The “Degree of Edema” value in data set [5] (setting [6]) was 10.46 ± 0.64 mg. For the same molecule, the “Inhibition of ear swelling” value in data set [5] (25 mg/kg intragastric) stood at 14.61%. Besides, the “Degree of Edema” value in data set [5] (setting [7]) was found to be 7.95 ± 0.71 mg. Moreover, the “Inhibition of ear swelling” value in data set [5] (50 mg/kg intragastric) is on record as 35.10%. Further, the “Inhibition of ear swelling” value in data set [5] (setting [8]) is reported as 52.08%. In data set [5] (setting [9]), the “Degree of Edema” value is listed as 5.87 ± 0.75 mg.
In turn, `CN1CC(=O)N(C(=O)C=Cc2ccccc2)C1=O` [Compound 1, 3-cinnamoyl-1-methylimidazolidine-2,4-dione] displayed a melting point of 140.6 to 141.5 °C. For the same molecule, in data set [2], the “inhibition of IL-1β secretion” value is reported as “no obvious inhibitory effect on IL-1β”. Besides, the 50% cytotoxic concentration (CC50) in data set [3] is 264 µM. In data set [4], the “inhibition of TNF-α secretion” value is on record as “no obvious inhibitory effect on TNF-α”. In addition, in data set [5] (setting [6]), the “Degree of Edema” value was 9.84 ± 0.72 mg. Also, the “Inhibition of ear swelling” value in data set [5] (25 mg/kg intragastric) came out at 19.67%. In addition, the “Degree of Edema” value in data set [5] (setting [7]) was found to be 8.47 ± 0.64 mg. The “Inhibition of ear swelling” value in data set [5] (50 mg/kg intragastric) is on record as 30.86%. Further, the “Inhibition of ear swelling” value in data set [5] (setting [8]) came out at 44.16%. Also, the “Degree of Edema” value in data set [5] (setting [9]) came out at 6.84 ± 0.61 mg.
